Entries after “also recorded” stand apart in the source; their conditions may differ.
Columns and labels:
[1] = In vitro release kinetics from stent coatings; assay type: physicochemical; conditions: for in vitro release rate of cladribine, effect of topcoat: twenty-five percent ethanol/water, room temperature
[2] = Porcine pharmacokinetics studies: in vivo release kinetics from stent coatings; conditions: for drug remained in the drug coating: after eight (8) days of implantation, porcine, single layer sirolimus + cilostazol in EVA/BMA, 100 μg BMA overcoat (FIG. 83)
Excerpt: The topcoat is two hundred micro grams.
FIG. 61 is a graphical representation of the in vivo release kinetics of cladribine from a polymeric coating on Bx Velocity® stents, available from Cordis Corporation, implanted in a Yorkshire pig. The basecoat comprises an 85/15 ratio of PVDF and HFP and cladribine for a total combined weight of one thousand eight hundred micrograms (cladribine comprising thirty percent of the total weight). The topcoat comprises an 85/15 ratio of PVDF/HFP and no cladribine. The total weight of the topcoat is three hundred micrograms.
(§1) The basecoat is applied to Bx Velocity® stents and implanted into Yorkshire pigs.
as §1
Another critical parameter for the performance of the thrombus resistance of a device coated with cilostazol is the duration of the drug release from the coating. This is of particular significance in the two weeks after device implantation. […] The purpose of the porcine PK study is to assess the local pharmacokinetics of a drug eluting stent at a given implantation time. Normally three stents are implanted in three different coronary arteries in a pig for a given time point and then retrieved for total drug recovery analysis. The stents are retrieved at predetermined time points; namely, 1, 3 and 8 days. The stents are extracted and the total amount of drug remaining on the stents is determined by analysis utilizing HPLC (high performance liquid chromatography) for total drug amount. The difference between the original amount of drug on the stent and the amount of drug retrieved at a given time represents the amount of drug released in that period. The continuous release of drug into surrounding arterial tissue is what prevents the neointimal growth and restenosis in the coronary artery. A normal plot represents the percentage of total drug released (%, y-axis) vs. time of implantation (day, x-axis). […] Curve 8102 represents cilostazol and curve 8104 represents sirolimus. […] In this exemplary configuration, the stent 8300 is coated with two layers. The first layer 8302 comprises a combination of sirolimus, cilostazol and a copolymer matrix of EVA/BMA. The second layer or diffusion overcoat 8304 comprises only BMA. More specifically, in this embodiment, the first layer 8302 comprises a combination of sirolimus and cilastazol that is forty-five (45) percent by weight of the total weight of the first layer 8302 and an EVA/BMA copolymer matrix that is fifty-five (55) percent by weight of the total weight of the first layer 8302. The diffusion overcoat comprises one hundred (100 μg) micrograms of BMA.

bovine blood = assay: In vitro bovine blood loop model (In 111 labeled platelets); conditions: sirolimus/cilostazol coated stents versus control
Excerpt: The anti-thrombotic efficacy of the above-described three configurations is illustrated in FIG. 80. FIG. 80 illustrates the anti-thrombotic properties of the sirolimus/cilostazol combination coatings described above in an in vitro bovine blood loop model. In the in vitro bovine blood loop model, fresh bovine blood is heparinized to adjust for acute clotting time (ACT) of about two hundred (200) seconds. The platelet content in the blood is labeled through the use of Indium 111. In the study, a stent is deployed in a silicone tube, which is part of a closed loop system for blood circulation. The heparinzed blood is circulated through the closed loop system by means of a circulating pump. Blood clots and thrombus builds up on a stent surface over time and reduces the flow rate of blood through the stented loop. […] The control drug eluting stent is the Cypher® sirolimus eluting coronary stent available from Cordis Corporation. Bar 8004 is a stent coated with heparin and is available from Cordis Corporation under the […]® on the Bx Velocity® coronary stent trademark. Bar 8006 is a stent configured as set forth with respect to the architecture illustrated in FIG. 75. Bar 8008 is a stent configured as set forth with respect to the architecture illustrated in FIG. 77. Bar 8010 is a stent configured as set forth with respect to the architecture illustrated in FIG. 79.

[3] = Liquid formulations: drug concentration by liquid chromatography and visual observation; assay type: physicochemical; conditions: water, ethanol less than two percent, Vitamin E TPGS
Method: The concentrations of each constituent were determined by liquid chromatography and are presented as weight by volume figures.
The liquid formulation was created utilizing the following process. Two hundred milligrams of sirolimus and two grams of ethanol were added to a pre-weighed twenty milliliter scintillation vial. The vial was vortexed and sonicated until the sirolimus was completely dissolved. Approximately six hundred milligrams of Vitamin E TPGS was then added to the solution of ethanol and sirolimus. The vial was vortexed again until a clear yellowish solution was obtained. Nitrogen gas was then used to reduce the amount of ethanol in the vial to approximately two hundred twenty-nine milligrams. In a separate vial, three hundred milligrams of Vitamin E TPGS was dissolved in eleven milliliters of purified water while undergoing vortexing. The Vitamin E TPGS and water solution was then added to the first vial containing the sirolimus, Vitamin E TPGS and ethanol. The first vial was then vortexed vigorously and continuously for three minutes.
In another exemplary embodiment, a liquid formulation of CCI-779, a sirolimus analog, is prepared utilizing ethanol, Vitamin E TPGS and water. This liquid formulation was made under similar conditions as to that described above. […]

[4] = system: human coronary artery smooth muscle cells; assay: Anti-proliferative activity in non-synchronized cultured coronary artery smooth muscle cells, two percent fetal bovine serum; assay type: cell-based
Excerpt: The multiple curves represent various concentrations of mycophenolic acid ranging from zero to one thousand nanomolar concentrations.
FIG. 58 illustrates, in graphical format, the anti-proliferative activity of cladribine in non-synchronized cultured human coronary artery smooth muscle cells stimulated with two percent fetal bovine serum.
The multiple curves represent various concentrations of cladribine ranging from zero to nine hundred nanomolar concentrations.

cell viability = assay: Cell viability assay; assay type: cell-based
Excerpt: (§2) The multiple curves represent various concentrations of topotecan ranging from zero to three hundred nanomolar concentrations.
(§3) The multiple curves represent various concentrations of etoposide ranging from zero to eight hundred nanomolar concentrations.

[5] = system: human coronary artery smooth muscle cells; assay: Anti-proliferative activity in synchronized cultured coronary artery smooth muscle cells, two percent fetal bovine serum; assay type: cell-based
Excerpt: as §2, §3
Referring to FIG. 66, there is illustrated, in graphical format, the anti-proliferative activity of Panzem® in synchronized cultured human coronary artery smooth muscle cells stimulated with two percent fetal bovine serum.
The multiple curves represent various concentrations of Panzem® ranging from zero to 100 micromolar concentrations.

[6] = system: human smooth muscle cells; assay: Cladribine Example: PDGF-stimulated proliferation of smooth muscle cells; assay type: cell-based; conditions: from IC50 values 23 and 40 nanomolar
Method: To assess the ability of cladribine to prevent cell proliferation, human smooth muscle or endothelial cells (Clonetics, Walkersville, Md.) were seeded at a density of 2000 cells/cm^2 (approximately 3600 cells/well) into each well of 12-well plates and cultured with 1.5 ml of growth medium containing five percent fetal calf serum (FCS). After twenty-four hours, the growth medium was changed and fresh medium containing 10 ng/ml platelet-derived growth factor AB (PDGF AB; LIFE Technologies), as well as various concentrations of cladribine (0.001-10,000 nM) were added with triplicate wells. Medium was replaced with fresh cladribine-containing medium after three days. On day six, cells were detached by trypsinization to yield a cell suspension, lightly centrifuged to pellet and then counted manually using a Neubauer hemocytometer system. Cell viability was assessed by trypan blue exclusion.

[7] = system: human coronary artery smooth muscle cell; conditions: concentrations 6.6 nanomolar up to 30,000.00 nanomolar
Excerpt: In vitro cytotoxicity tests or assays may be utilized to determine if drugs, agents and/or compounds are potentially toxic and the level of toxicity. Essentially, in vitro cytotoxicity assays determine acute necrotic effects by a drug causing direct cellular damage. The idea behind these assays is that toxic chemicals affect basic functions of cells which are common to all cells. […] There are a number of different assays that may be utilized. In the present invention, the cytotoxicity assay utilized is based upon the measurement of cellular metabolic activity. A reduction in metabolic activity is an indication of cellular damage. Tests that can measure metabolic function measure cellular ATP levels or mitochondrial activity via MTS metabolism. FIG. 69 is a graphical representation of the results of an MTS assay of Panzem®.

[8] = system: human coronary artery smooth muscle cell; assay: In vitro cell culture study of coronary artery smooth muscle cell proliferation (trichostatin A); assay type: cell-based
Excerpt: FIG. 51 is a graph of the inhibition of coronary artery smooth muscle cells by trichostatin A in a cell culture study.

tumor cell lines = tumor cell lines (Woo et al., 2002); cited from earlier work
[9] = 600 μg EVA/BMA basecoat with 30% rapamycin and 30% mycophenolic acid, no, 100 or 200 μg BMA topcoat

O=C1CCc2cc(OCCCCc3nnnn3C3CCCCC3)ccc2N1 [cilostazol, 6[4-(1-cyclohexyl-1H-tetrazol-5-yl)-butoxy]-3,4-dihydro-2-(1H)-quinolinone]
in vitro drug release rate, 200 μg versus 100 μg BMA diffusion overcoat ([1]; layered sirolimus/cilostazol coatings of FIGS. 75 and 77): comparatively slower from the configuration comprising the thicker diffusion overcoat of BMA | in vitro release ([1]; single layer sirolimus + cilostazol in EVA/BMA, 100 μg BMA overcoat (FIG. 83)): ~35% | drug remained in the drug coating [2]: ~80% | thrombus formation (bovine blood): significantly reduces thrombus formation

CO[C@H]1C[C@@H]2CC[C@@H](C)[C@@](O)(O2)C(=O)C(=O)N2CCCC[C@H]2C(=O)O[C@H]([C@H](C)C[C@@H]2CC[C@@H](OC(=O)C(C)(CO)CO)[C@H](OC)C2)CC(=O)[C@H](C)/C=C(\C)[C@@H](O)[C@@H](OC)C(=O)[C@H](C)C[C@H](C)/C=C/C=C/C=C/1C [CCI-779]
concentration of CCI-779 in the final solution (HPLC) [3]: 15000 µg/mL

COc1c(C)c2c(c(O)c1C/C=C(\C)CCC(=O)O)C(=O)OC2 [mycophenolic acid]
in vivo release of mycophenolic acid, effect of topcoat [2, 9]: BMA topcoat does slow the release of mycophenolic acid | in vivo elution of mycophenolic acid compared with rapamycin ([2]; EVA/BMA basecoat, BMA topcoat): elutes more completely over a shorter duration than the rapamycin | effect of mycophenolic acid on the anti-proliferative rapamycin dose response curve ([4]; mycophenolic acid zero to one thousand nanomolar added to rapamycin): potentiates the anti-proliferative activity of rapamycin

CC[C@@]1(O)C(=O)OCc2c1cc1n(c2=O)Cc2cc3c(CN(C)C)c(O)ccc3nc2-1 [topotecan]
cytotoxicity in cell viability assay (cell viability; concentrations up to one micromolar): non-cytotoxic | effect of topotecan on the anti-proliferative rapamycin dose response curves ([5]; topotecan 18.8 to 300 nanomolar added to rapamycin): potentiate the anti-proliferative activity of rapamycin; also recorded: increases the percent inhibition of rapamycin alone

Nc1nc(Cl)nc2c1ncn2[C@H]1C[C@H](O)[C@@H](CO)O1 [cladribine, 2-chlorodeoxyadenosine]
in vitro release rate of cladribine, effect of topcoat ([1]; non-sterile PVDF/HFP (85/15) coatings): increase in topcoat weight or thickness led to a decrease in the release rate of cladribine | in vitro release rate of cladribine, effect of topcoat ([1]; sterile PVDF/HFP coating): drastic decrease of release rate of cladribine | in vivo elution of cladribine ([2]; Bx Velocity stent, Yorkshire pig, 1800 μg PVDF/HFP (85/15) basecoat with 30% cladribine, 300 μg topcoat): after the first day, the elution of cladribine levels off significantly | in vivo elution of cladribine compared with rapamycin ([2]; EVA/BMA basecoat, 200 μg BMA topcoat, Yorkshire pigs): elutes more rapidly than rapamycin | effect of cladribine on the anti-proliferative rapamycin dose response curves ([4]; cladribine 56.25 to 900 nanomolar added to rapamycin): potentiate the anti-proliferative activity of rapamycin; also recorded: increases the percent inhibition of rapamycin alone | inhibition of human coronary artery smooth muscle cell proliferation ([4]; non-synchronized cells, two percent fetal bovine serum): completely inhibits | potency as inhibitor of smooth muscle cells relative to endothelial cells [6]: approximately twice

COc1cc2c(cc1O)CC[C@@H]1[C@@H]2CC[C@]2(C)[C@@H](O)CC[C@@H]12 [Panzem®, 2-methoxyestradiol]
effect of Panzem on the anti-proliferative activity of rapamycin ([5]; Panzem 0.813 to 100 micromolar added to rapamycin): potentiation of rapamycin by Panzem®; also recorded: increases the percent of inhibition of rapamycin alone | anti-proliferative activity (single agent) ([5]; synchronized human coronary artery smooth muscle cells, two percent fetal bovine serum): extremely effective inhibitor of human coronary artery smooth muscle cell proliferation in vitro | cytotoxicity, MTS assay [7]: do not reduce human coronary artery smooth muscle cell survival

COc1cc([C@@H]2c3cc4c(cc3[C@@H](O[C@@H]3O[C@@H]5CO[C@@H](C)O[C@H]5[C@H](O)[C@H]3O)[C@H]3COC(=O)[C@H]23)OCO4)cc(OC)c1O [etoposide]
cytotoxicity in cell viability assay (cell viability; concentrations up to ten micromolar): non-cytotoxic | effect of etoposide on the anti-proliferative rapamycin dose response curves ([5]; etoposide 255.7 to eight hundred nanomolar added to rapamycin): potentiate the anti-proliferative activity of rapamycin; also recorded: increases the percent inhibition of rapamycin alone

CC(/C=C/C(=O)NO)=C\[C@@H](C)C(=O)c1ccc(N(C)C)cc1 [trichostatin A]
inhibition of human coronary artery smooth muscle cell proliferation [8]: completely inhibit | IC50 ([8]; human coronary artery smooth muscle cells, read-out: anti-proliferative IC50): ~6 nM | anti-proliferative IC50's (tumor cell lines): low nM range

CO[C@H]1C[C@@H]2CC[C@@H](C)[C@@](O)(O2)C(=O)C(=O)N2CCCC[C@H]2C(=O)O[C@H]([C@H](C)C[C@@H]2CC[C@@H](O)[C@H](OC)C2)CC(=O)[C@H](C)/C=C(\C)[C@@H](O)[C@@H](OC)C(=O)[C@H](C)C[C@H](C)/C=C/C=C/C=C/1C [rapamycin]
in vivo release of rapamycin, effect of topcoat [2, 9]: BMA topcoat does slow the release of rapamycin | in vivo release rates of rapamycin from three rapamycin/cladribine coatings ([2]; 600 μg EVA/BMA basecoats with varied rapamycin/cladribine loads, 200 μg BMA topcoat, Yorkshire pigs): substantially similar to one another | in vivo release rate of rapamycin compared with mycophenolic acid ([2]; 600 μg PVDF basecoat, 200 μg PVDF topcoat): slower release rate than that of mycophenolic acid | drug remained in the drug coating [2]: ~80%

Reference: patent US8784860B2 (Cordis Corporation, priority 2005, dated 2014)
